# Laboratory results taken from article PMC9964746, “Mechanism of Action and Structure–Activity Relationships of Tetracyclic Small Molecules Acting as Universal Positive Allosteric Modulators of the Cholecystokinin Receptor” (Membranes, 2023).
# Several values for one entry are separate records, joined by “and”; a condition that tells them apart may be missing. Equal values may be shown once.
# Columns and labels:
# Assay type in all cases: cell-based
# CCK1R [1] = molecular target: T1, CCK1R (Homo sapiens, UniProt P32238); test: IP-One accumulation TR-FRET assay, PAM format, HEK-293 CCK1R cells; parameters: expressed in transfected cells; host or cells: HEK-293; conditions: for Emax: HEK293, relative to CCK control; for Emax / CCK1R PAM (IP-One) Score (activity score = normalized Emax × pEC50) / EC50: HEK-293 CCK1R cells; for Emax / CCK1R PAM (IP-One) Score (activity score = normalized Emax × pEC50): PAM format; for Emax / EC50: average ± SD; for CCK1R IP-One activity (in words): PAM and agonist formats; for EC50: PAM format with EC20 CCK
# T1 sequence (P32238 1-428): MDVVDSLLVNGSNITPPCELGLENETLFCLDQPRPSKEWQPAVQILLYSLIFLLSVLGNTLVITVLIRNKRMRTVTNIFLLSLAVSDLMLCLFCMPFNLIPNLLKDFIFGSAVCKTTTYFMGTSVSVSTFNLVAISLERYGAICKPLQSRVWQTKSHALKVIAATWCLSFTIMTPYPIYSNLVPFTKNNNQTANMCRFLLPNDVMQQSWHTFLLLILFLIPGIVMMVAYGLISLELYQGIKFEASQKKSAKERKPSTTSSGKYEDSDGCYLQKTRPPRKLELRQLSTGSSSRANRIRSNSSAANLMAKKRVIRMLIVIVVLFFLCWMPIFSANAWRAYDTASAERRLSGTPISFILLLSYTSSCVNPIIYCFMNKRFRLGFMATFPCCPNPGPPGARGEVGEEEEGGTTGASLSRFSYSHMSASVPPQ
# Description: (§1) For structure–activity relationship studies, we performed myo-inositol-1-phosphate (IP-One) accumulation assays with TR-FRET technology applied to the HEK-293 cell line overexpressing CCK1Rs, as we had described in our high throughput screening effort. In brief, thawed cryopreserved cell stocks were re-suspended in IP-One assay media consisting of phenol-red free DMEM (Corning, Corning, NY, USA, #17-205-CV) with 10% FBS, 1% penicillin (10,000 units)/streptomycin (10 mg) (Pen/Strep, Thermo Fisher Scientific, Waltham, MA, USA, Gibco #15140122), and 1% L-glutamine (200 mM) (Gibco #25030081) and diluted to required cell densities. Then, the cell suspension was dispensed into a 1536-well tissue culture microplate (Corning, #3727), and the plate was incubated overnight at 37 °C and 5% CO^2. After 16–20 h, DMSO or compounds were added with an Echo liquid handler (Labcyte, San Jose, CA, USA), resulting in a top final compound concentration of 50 µM diluted 2-fold for 16-point dose–responses. For the positive allosteric modulator (PAM) format, orthosteric stimulator (CCK) dilutions for control wells were prepared in assay media containing 150 mM lithium chloride (LiCl, 50 mM final, Sigma-Aldrich, St Louis, MO, USA, #L7026). After a 30 min incubation of test compounds at 37 °C and 5% CO2, orthosteric stimulator dilutions (for PAM format) or equivalent dilutions of DMSO (for agonist format) were added to designated wells using BioRaptr (Beckman Coulter, Brea, CA, USA). In addition, CCK control ligand dilutions were included on each test plate. After that, the plate was incubated for 1 h at 37 °C and 5% CO^2 and equilibrated to room temperature. Detection reagents from the IP-One Gq detection kit from Cisbio (Cisbio US Inc., Bedford, MA, USA, #62IPAPEJ) were added, and after 1 h at RT, IP-One content was measured with a PHERAstar FSX microplate reader (BMG Labtech, Ortenberg, Germany). Control ligand dose–responses were analyzed using GraphPad Prism 9.3.1 (San Diego, CA, USA) to validate adequate control and test well concentrations for positive allosteric modulation (PAM) and agonist formats. Dose–response curves were performed as 16-point 2-fold dilutions in duplicates in at least three independent experiments. Large data sets were uploaded and analyzed with CBIS (Chemical and Biology Information System software, ChemInnovation Software, Inc., San Diego, CA, USA). Further data analysis for detailed SAR studies was conducted using the D360 software (Certara).
# (§2) The potency and efficacy data for these compounds were used to calculate their activity scores using the following formula: Activity Score = normalized Emax × pEC50. Normalized Emax represents the efficacy of the compound as a fractional response relative to that of the CCK control ligand. pEC50 represents the positive logarithmic value of compound EC50 concentrations in (M).
# [2] = molecular target: T2, vasopressin-2 receptor (AVP2R) (Homo sapiens, UniProt P30518); test: AVP2R cAMP HTRF accumulation assay; conditions: for AVP2R PAM (cAMP) Score (activity score = normalized Emax × pEC50) / Emax / EC50: CHO-K1 AVP2R cells; for Emax / EC50: PAM format with vasopressin, original hits: agonist and PAM data combined, average ± SD
# T2 construct: expressed in transfected cells; host or cells: CHO-K1 (PAM format); HEK-293 (agonist format)
# T2 sequence (P30518 whole entry): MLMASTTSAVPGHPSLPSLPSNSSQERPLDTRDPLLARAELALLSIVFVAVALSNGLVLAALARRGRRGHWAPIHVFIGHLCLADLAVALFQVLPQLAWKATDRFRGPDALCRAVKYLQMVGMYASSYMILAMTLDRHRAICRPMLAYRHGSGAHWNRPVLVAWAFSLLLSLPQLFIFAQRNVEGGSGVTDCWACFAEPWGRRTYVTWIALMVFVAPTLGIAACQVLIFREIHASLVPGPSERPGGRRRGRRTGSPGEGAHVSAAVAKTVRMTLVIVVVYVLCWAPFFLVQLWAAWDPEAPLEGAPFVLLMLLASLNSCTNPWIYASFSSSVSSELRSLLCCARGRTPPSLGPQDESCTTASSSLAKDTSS
# Description: Possible off-target biological effects. […] Here, we tested them at the vasopressin-2 receptor (AVP2R), representing a class A GPCR structurally related to CCK1R, which is coupled to Gs. The activity at AVP2R was tested using AVP2R-overexpressing CHO-K1 (PAM format) or HEK-293 (agonist format) cells, stimulating the cells with vasopressin. Original hits were tested in both agonist and PAM formats. Since all recognized compound responses were present in both formats, we continued to screen analogs in only the PAM format (also able to capture agonist effects) in CHO-K1 AVP2R cells for potential enhanced sensitivity. The dose–response data sets for original hits were combined, as the PAM and agonist effects were indistinguishable. In brief, arginine vasopressin (AVP) orthosteric stimulator dilutions and ligand and compound dose–response titrations in DMSO were transferred onto a 1536-well plate (Corning #3725) using an Echo liquid handler (Labcyte). Thawed cryopreserved cell stocks were diluted in stimulation buffer consisting of HBSS (Hank’s Balanced Salt Solution with Ca^2+ and Mg^2+, Gibco #24020117), 5 mM HEPES (hydroxyethyl piperazineethanesulfonic acid), 0.5 mM IBMX (3-isobutyl-1-methylxanthine, Sigma-Aldrich), and 0.075% BSA (7.5% DTPA-purified bovine serum albumin, PerkinElmer). The resulting cell suspension was added to the microplate and incubated with test compounds at room temperature for 30 min. Then, the detection reagents from the Cisbio cAMP Gs Dynamic HTRF detection kit were added. The plate was kept at room temperature for 30 min and read on a PHERAstar FSX microplate reader. Dose–response curves were performed as 16-point 2-fold dilutions in duplicate in at least two independent experiments.
# CCK1R [3] = molecular target: T1, CCK1R; test: IP-One accumulation TR-FRET assay, agonist format, HEK-293 CCK1R cells; parameters: expressed in transfected cells; host or cells: HEK-293; conditions: for Emax: HEK293, relative to CCK control, read-out: CCK1R Ago (IP-One) Emax
# Description: as §1, §2
Structure (SMILES),Emax (CCK1R [1]) [%],CCK1R PAM (IP-One) Score (activity score = normalized Emax × pEC50) (CCK1R [1]),CCK1R IP-One activity (in words) (CCK1R [1]),AVP2R PAM (cAMP) Score (activity score = normalized Emax × pEC50) ([2]; PAM format),Emax [2] [%],CCK1R Ago (IP-One) Score (activity score = normalized Emax × pEC50) (CCK1R [3]),Emax (CCK1R [3]; average ± SD) [%],EC50 (CCK1R [1]) [µM],EC50 [2] [µM],"EC50 (CCK1R [3]; average ± SD, read-out: CCK1R Ago (IP-One) EC50) [µM]",Log(Rmax/R50) (CCK1R [1]; CCK1R IP-One PAM assay),AVP2R cAMP response (in words) ([2]; PAM format)
COCCNc1ncnc2c1sc1nc(N3CCOCC3)c3c(c12)CCCC3 [CMP-47],0,0,None of these analogs showed any CCK1R activity,0,0,0,0,–,–,–,–,–
CCN(CC)c1ncnc2c1sc1nc(N3CCOCC3)c3c(c12)CCCC3 [CMP-46],0,0,significantly diminished responses,0,0,0,0,–,–,–,–,–
CN(C)CCNc1nnnc2c1sc1nc(N3CCCCC3)c3c(c12)CCCC3 [CMP-27],38 ± 14,1.7,–,3.5 and 3.51,70 ± 4,0,0,18.4 ± 8.1,9.1 ± 1,–,–,–
CCCc1nc2oc3c(NN)ncnc3c2c2c1CCCC2 [CMP-53],0,0,–,2.95,61 ± 12,0,0,–,15.3 ± 9.8,–,–,–
NNc1ncnc2c1sc1nc(N3CCOCC3)c3c(c12)CCCC3 [CMP-51],0,0,significantly diminished responses,0,0,0,0,–,–,–,–,–
CCN(CC)CCNc1ncnc2c1oc1nc(CC(C)C)c3c(c12)CCC3 [CMP-33],35 ± 19,1.51,–,1.60,34 ± 1,0,–,18.8 ± 7.7,21 ± 6.5,–,–,–
c1ccc(CCNc2ncnc3c2sc2nc(N4CCOCC4)c4c(c23)CCCC4)cc1 [CMP-42],0,0,None of these analogs showed any CCK1R activity,0,0,0,0,–,–,–,–,–
CCCc1nc2sc3c(SC)ncnc3c2c2c1CCCC2 [CMP-38],20 ± 7.6,1.0 and 1.01,–,0,0,0,0,7.6 ± 3.3,–,–,4.4,–

# Second part, led by results:
Emax (CCK1R [1]) [%],CCK1R PAM (IP-One) Score (activity score = normalized Emax × pEC50) (CCK1R [1]),CCK1R IP-One activity (in words) (CCK1R [1]),AVP2R PAM (cAMP) Score (activity score = normalized Emax × pEC50) ([2]; PAM format),Emax [2] [%],CCK1R Ago (IP-One) Score (activity score = normalized Emax × pEC50) (CCK1R [3]),Emax (CCK1R [3]; average ± SD) [%],EC50 (CCK1R [1]) [µM],EC50 [2] [µM],"EC50 (CCK1R [3]; average ± SD, read-out: CCK1R Ago (IP-One) EC50) [µM]",Log(Rmax/R50) (CCK1R [1]; CCK1R IP-One PAM assay),Structure (SMILES),AVP2R cAMP response (in words) ([2]; PAM format)
45 ± 23,1.9,–,1.7 and 1.74,37 ± 4,0,–,23.8 ± 10.5,22.8 ± 3.8,–,–,CC(C)Cc1nc2oc3c(NCCN(C)C)ncnc3c2c2c1CCC2 [CMP-21],–
38 ± 13,1.86,–,2.9 and 2.93,53 ± 3,1.85,41 ± 1,9.6 ± 3.6,3.1 ± 1.3,30 ± 4.9,–,CN(C)CCCNc1nnnc2c1sc1nc(N3CCCCC3)c3c(c12)CCCC3 [CMP-23],–
0,0,–,0,0,0,0,–,–,–,–,O=C(CSc1ncnc2c1sc1nc(N3CCOCC3)c3c(c12)CCCC3)Nc1ccc(Br)cc1 [CMP-41],–
36 ± 20,1.5 and 1.49,–,1.6 and 1.59,31,0,0,31.3 ± 14.9,7.9 ± 2.5,–,–,CN(C)CCNc1ncnc2c1sc1nc(N3CCCCC3)c3c(c12)CCCC3 [CMP-35],–
0,0,–,0,0,0,0,–,–,–,–,CCOC(=O)N1CCN(c2ncnc3c2oc2nc(CC(C)C)c4c(c23)CCCC4)CC1 [CMP-55],–
0,0,–,5.33,96 ± 9,0,0,–,2.9 ± 0.1,–,–,COc1ccc(NC(=O)CSc2ncnc3c2sc2nc(N4CCOCC4)c4c(c23)CCCC4)cc1 [CMP-40],strong activation of AVP2R-mediated cAMP accumulation
41 ± 34,1.52,–,1.67,33 ± 26,0,–,23.9 ± 25.8,9.3 ± 11.1,–,–,CCCCc1nc2sc3c(NCCN4CCOCC4)ncnc3c2c2c1CCCC2 [CMP-32],–
–,–,displayed no effects,0.93,20,0,0,–,22.3 ± 7.2,–,–,CC(Sc1ncnc2c1sc1nc(N3CCOCC3)c3c(c12)CCCC3)C(=O)O (stereo not shown) [CMP-59],–
